SMILES strings stand for the structures. Like-named read-outs stand apart in the source and are kept apart here.

Data set [1] concerns Leptosphaeria nodorum (LEPTNO). Description: In vitro fungitoxicity of hydrazones with and without copper towards Leptosphaeria nodorum (Example 26). Format: cell-based. As to conditions: 72 h at 25° C.; for inhibition of growth at 0.05 µg/mL: Parastagonospora nodorum, 72 h, copper-minus medium, read-out: LEPTNO % Inhn. Minus Copper Observed.
In a further data set the test system is Phytophthora infestans. Format: in vivo, Phytophthora infestans on tomato. The note with it: applied 24 h before inoculation, assessed 7 days after inoculation.
The mark [2] stands for this setting: test compound Concn. 0.05 μg/mL.
The mark [3] stands for this setting: copper-plus medium (CuCl2 10 μM), test compound Concn. 0.05 μg/mL.
The mark [4] stands for this setting: hydrazone 50 ppm with 50 μM CuCl2.2H2O, tomato late blight.
Setting [5] is: compound 0.05 μg/mL, copper-plus medium (CuCl2.2H2O).
Setting [6] is: hydrazone 50 ppm + 50 μM CuCl2.2H2O, tomato.

Regarding `C/C(=N\NC(=O)c1ccc(Cl)cc1)c1cccc(Cl)c1O` [Example 498], the melting point lay within 208 to 209 °C. In addition, the inhibition of growth at 0.05 µg/mL in data set [1] (setting [2]) is 0%. Moreover, the “LEPTNO % Inhn. Plus Copper Observed” value in data set [1] (setting [3]) came out at 97.5%. In addition, in the data set on Phytophthora infestans (setting [4]), the “TLB % Control” value is given as 85.0%.
Compound `COc1ccc(C(=O)N/N=C(\C)c2cc(Cl)ccc2O)cc1` [Example 511] gave a melting point of 203 to 228 °C. In addition, the inhibition of growth at 0.05 µg/mL in data set [1] (setting [2]) was 0%. Moreover, the “LEPTNO % Inhn. Plus Copper Observed” value in data set [1] (setting [3]) is 97.8%. In addition, the “TLB % Control” value with Phytophthora infestans (setting [4]) is given as 73.0%.
In turn, `COc1ccc(O)c(/C(C)=N/NC(=O)c2ccccc2)c1` [Example 261] displayed a melting point of 150 to 152 °C. Further, in data set [1] (compound 0.05 μg/mL), the inhibition of growth at 0.05 µg/mL came out at 2.7%. The “LEPTNO % Inhn. Plus Copper Observed” value in data set [1] (setting [5]) is listed as 97.9%. Moreover, the “TLB % Control” value in the data set on Phytophthora infestans (setting [6]) turned out to be 10.0%.
For the compound `O=C(N/N=C/c1cccc(C(F)(F)F)c1O)c1ccccc1` [Example 296], the melting point lay in the range of 170 to 173 °C. In addition, in data set [1] (setting [2]), the inhibition of growth at 0.05 µg/mL was 8.3%. Also, in data set [1] (setting [3]), the “LEPTNO % Inhn. Plus Copper Observed” value came out at 97.7%. Also, in the data set with Phytophthora infestans (setting [4]), the “TLB % Control” value is 84.7%.
`COc1ccc(/C(C)=N/NC(=O)c2cccc(C)c2)c(O)c1OC` [Example 553] yielded a melting point of 158 to 162 °C. Further, the inhibition of growth at 0.05 µg/mL in data set [1] (setting [2]) amounted to 0%. In addition, the “LEPTNO % Inhn. Plus Copper Observed” value in data set [1] (setting [3]) is 93.2%. The “TLB % Control” value with Phytophthora infestans (setting [4]) is given as 88.0%.
`Cc1cc(C)cc(C(=O)N/N=C/c2ccccc2O)c1` [Example 167] showed a melting point of 203 to 205 °C. The inhibition of growth at 0.05 µg/mL in data set [1] (compound 0.05 μg/mL) worked out at 0%. Besides, the “LEPTNO % Inhn. Plus Copper Observed” value in data set [1] (setting [5]) amounted to 95.8%. Further, the “TLB % Control” value with Phytophthora infestans (setting [6]) is 67.3%.
In turn, `C/C(=N\NC(=O)c1ccc(Cl)cc1)c1cc(C(F)(F)F)ccc1O` [Example 533] returned a melting point of 263 to 265 °C. Moreover, the inhibition of growth at 0.05 µg/mL in data set [1] (setting [2]) was found to be 6.2%. The “LEPTNO % Inhn. Plus Copper Observed” value in data set [1] (setting [3]) is listed as 97.0%. In addition, the “TLB % Control” value in the data set with Phytophthora infestans (setting [4]) is listed as 34.0%.
Compound `C/C(=N\NC(=O)c1cccc(Oc2ccccc2)c1)c1ccccc1O` [Example 47] had a melting point of 178 to 180 °C. For the same compound, the inhibition of growth at 0.05 µg/mL in data set [1] (compound 0.05 μg/mL) came out at 0%. Also, in data set [1] (setting [5]), the “LEPTNO % Inhn. Plus Copper Observed” value was found to be 97.1%. The “TLB % Control” value with Phytophthora infestans (setting [6]) came out at 33.0%.
`C/C(=N\NC(=O)c1cccc(Cl)c1O)c1cc(Cl)cc(Cl)c1O` [Example 481] came in with a melting point of 260 to 262 °C. Moreover, in data set [1] (setting [2]), the inhibition of growth at 0.05 µg/mL is 10.3%. Besides, the “LEPTNO % Inhn. Plus Copper Observed” value in data set [1] (setting [3]) was 97.8%. The “TLB % Control” value in the data set on Phytophthora infestans (setting [4]) is reported as 76.0%.
Consider `C/C(=N\NC(=O)c1ccccc1C)c1ccc(Cl)cc1O` [Example 252], for which the melting point was in the range of 214 to 215 °C. Moreover, the inhibition of growth at 0.05 µg/mL in data set [1] (compound 0.05 μg/mL) was determined as 7.8%. The “LEPTNO % Inhn. Plus Copper Observed” value in data set [1] (setting [5]) is given as 98.4%. In the data set with Phytophthora infestans (setting [6]), the “TLB % Control” value was found to be 28.0%.
`COc1ccccc1C(=O)N/N=C(\C)c1cc(Cl)cc(Cl)c1O` [Example 141] yielded a melting point of 307 to 310 °C. Also, in data set [1] (compound 0.05 μg/mL), the inhibition of growth at 0.05 µg/mL amounted to 1.5%. Further, the “LEPTNO % Inhn. Plus Copper Observed” value in data set [1] (setting [5]) is given as 96.2%. In the data set with Phytophthora infestans (setting [6]), the “TLB % Control” value is 52.0%.
For the compound `Cc1cccc(C(=O)N/N=C/c2c(O)cccc2Cl)c1` [Example 398], the melting point was in the range of 245 to 248 °C. In data set [1] (setting [2]), the inhibition of growth at 0.05 µg/mL worked out at 5.4%. For the same compound, the “LEPTNO % Inhn. Plus Copper Observed” value in data set [1] (setting [3]) was found to be 94.7%. Further, the “TLB % Control” value with Phytophthora infestans (setting [4]) is recorded as 98.0%.
The like results for `C/C(=N\NC(=O)c1ccc(C)cc1)c1cc(C)ccc1O` [Example 314] were, in that order, 206 to 208 °C, 0%, 97.7% and 8.8%.
On to `CNc1ccc(C(=O)N/N=C/c2cc(Cl)cc(Cl)c2O)cc1` [Example 259], for which the melting point was 245 to 253 °C. In addition, the inhibition of growth at 0.05 µg/mL in data set [1] (compound 0.05 μg/mL) amounted to 9.9%. Moreover, the “LEPTNO % Inhn. Plus Copper Observed” value in data set [1] (setting [5]) turned out to be 97.9%. The “TLB % Control” value in the data set with Phytophthora infestans (setting [6]) is given as 32.0%.
In the case of `C/C(=N\NC(=O)c1ccccc1O)c1cccc([N+](=O)[O-])c1O` [Example 525], the melting point was in the range of 274 to 283 °C. Also, the inhibition of growth at 0.05 µg/mL in data set [1] (setting [2]) was found to be 5.4%. Moreover, the “LEPTNO % Inhn. Plus Copper Observed” value in data set [1] (setting [3]) is reported as 97.4%. Also, in the data set with Phytophthora infestans (setting [4]), the “TLB % Control” value is on record as 78.0%.
Turning to `Cc1cccc(C(=O)N/N=C/c2cc(Cl)cc(C(F)(F)F)c2O)c1` [Example 376], the melting point lay in the range of 199 to 201 °C. Besides, the inhibition of growth at 0.05 µg/mL in data set [1] (setting [2]) amounted to 13.6%. The “LEPTNO % Inhn. Plus Copper Observed” value in data set [1] (setting [3]) amounted to 96.5%. Moreover, the “TLB % Control” value in the data set with Phytophthora infestans (setting [4]) is 98.0%.
As for `C/C(=N\NC(=O)c1ccc(C(F)(F)F)cc1)c1cccc(Cl)c1O` [Example 501], the melting point fell in the range of 250 to 256 °C. In addition, in data set [1] (setting [2]), the inhibition of growth at 0.05 µg/mL turned out to be 0.5%. The “LEPTNO % Inhn. Plus Copper Observed” value in data set [1] (setting [3]) worked out at 98.0%. The “TLB % Control” value in the data set on Phytophthora infestans (setting [4]) is on record as 89.0%.
As for `COc1cccc(C(=O)N/N=C/c2cc(Cl)cc(Br)c2O)c1` [Example 166], the melting point was in the range of 166 to 168 °C. In addition, in data set [1] (compound 0.05 μg/mL), the inhibition of growth at 0.05 µg/mL came to 2.6%. Besides, the “LEPTNO % Inhn. Plus Copper Observed” value in data set [1] (setting [5]) stood at 97.9%. Also, the “TLB % Control” value in the data set with Phytophthora infestans (setting [6]) is 71.9%.
`Cc1cccc(C(=O)N/N=C/c2c(C(F)(F)F)ccc(Cl)c2O)c1` [Example 447] returned a melting point of 219 to 221 °C. Further, the inhibition of growth at 0.05 µg/mL in data set [1] (setting [2]) came out at 20%. Besides, the “LEPTNO % Inhn. Plus Copper Observed” value in data set [1] (setting [3]) was 96.6%. In the data set on Phytophthora infestans (setting [4]), the “TLB % Control” value came to 100.0%.
Taken in the same sequence, the figures for `O=C(N/N=C/c1cccc(C(F)(F)F)c1O)c1ccc(F)cc1` [Example 346] were 187 to 188 °C, 30%, 96.7% and 96.0%.
`C/C(=N\NC(=O)c1ccccc1C)c1cc(Br)cc(Br)c1O` [Example 540] registered a melting point of 221 to 222 °C. The inhibition of growth at 0.05 µg/mL in data set [1] (setting [2]) stood at 0%. Besides, in data set [1] (setting [3]), the “LEPTNO % Inhn. Plus Copper Observed” value is reported as 97.5%. The “TLB % Control” value in the data set with Phytophthora infestans (setting [4]) was 95.0%.
Taken in the same sequence, the figures for `C/C(=N\NC(=O)c1ccc(Br)cc1)c1cccc(Cl)c1O` [Example 500] were 226 to 232 °C, 9.2%, 93.2% and 80.0%.
On to `O=C(N/N=C/c1cc(Cl)cc(Cl)c1O)c1ccc(C(F)(F)F)cc1` [Example 81], for which the melting point lay in the range of 238 to 240 °C. Further, the inhibition of growth at 0.05 µg/mL in data set [1] (compound 0.05 μg/mL) turned out to be 2.4%. Besides, the “LEPTNO % Inhn. Plus Copper Observed” value in data set [1] (setting [5]) amounted to 96.1%. In addition, in the data set with Phytophthora infestans (setting [6]), the “TLB % Control” value is listed as 97.0%.
In the case of `O=C(N/N=C/c1c(C(F)(F)F)ccc(Cl)c1O)c1ccc(F)cc1` [Example 450], the melting point is 231 to 233 °C. In data set [1] (setting [2]), the inhibition of growth at 0.05 µg/mL amounted to 1.1%. In addition, the “LEPTNO % Inhn. Plus Copper Observed” value in data set [1] (setting [3]) came out at 93.5%. For the same compound, the “TLB % Control” value with Phytophthora infestans (setting [4]) is 100.0%.
The compound `O=C(N/N=C/c1cc(C(F)(F)F)cc(Cl)c1O)c1ccccc1C(F)(F)F` [Example 330] displayed a melting point of 169 to 171 °C. In data set [1] (setting [2]), the inhibition of growth at 0.05 µg/mL was 5.3%. Moreover, in data set [1] (setting [3]), the “LEPTNO % Inhn. Plus Copper Observed” value turned out to be 92.9%. In the data set with Phytophthora infestans (setting [4]), the “TLB % Control” value worked out at 99.0%.

A word on the melting point: it is the temperature, or range, at which the solid turns liquid.

Values taken from patent publication US20120010075A1 (priority 2009, published 2012).
